Data taken from PubChem BioAssay (NCI).
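Tested at 5 concentrations; 48 h exposure; 96-well plates; endpoints linearly interpolated, else capped at highest concentration. The concentration for 50% growth inhibition is given as GI50. TGI is the concentration that stops growth completely.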

Columns and labels:
Experiment in all cases: NCI anticancer screen, dose series, 48 h
HCC-2998 colon = system: HCC-2998 colon
HL-60(TB) leukemia = system: HL-60(TB) leukemia
OVCAR-5 ovarian = system: OVCAR-5 ovarian
786-0 renal = system: 786-0 renal
NCI-H460 lung = system: NCI-H460 lung
M14 melanoma = system: M14 melanoma
NCI-H226 lung = system: NCI-H226 lung
HT29 colon = system: HT29 colon
HOP-92 NSCLC = system: HOP-92 NSCLC
SK-MEL-2 melanoma = system: SK-MEL-2 melanoma
UACC-62 melanoma = system: UACC-62 melanoma
SK-OV-3 ovarian = system: SK-OV-3 ovarian
U251 CNS = system: U251 CNS
SF-268 CNS = system: SF-268 CNS
CCRF-CEM leukemia = system: CCRF-CEM leukemia
EKVX NSCLC = system: EKVX NSCLC
HOP-62 NSCLC = system: HOP-62 NSCLC
HCT-15 colon = system: HCT-15 colon
DU-145 prostate = system: DU-145 prostate
BT-549 breast = system: BT-549 breast
MDA-MB-468 breast = system: MDA-MB-468 breast
OVCAR-4 ovarian = system: OVCAR-4 ovarian
ACHN renal = system: ACHN renal
KM12 colon = system: KM12 colon
SK-MEL-5 melanoma = system: SK-MEL-5 melanoma
UO-31 renal = system: UO-31 renal
COLO 205 colon = system: COLO 205 colon
LOX IMVI melanoma = system: LOX IMVI melanoma
OVCAR-3 ovarian = system: OVCAR-3 ovarian
T-47D breast = system: T-47D breast
SF-539 CNS = system: SF-539 CNS
RPMI-8226 leukemia = system: RPMI-8226 leukemia
TK-10 renal = system: TK-10 renal
OVCAR-8 ovarian = system: OVCAR-8 ovarian
MDA-MB-231 breast = system: MDA-MB-231 breast
SF-295 CNS = system: SF-295 CNS
NCI-H23 lung = system: NCI-H23 lung
K-562 leukemia = system: K-562 leukemia
NCI/ADR-RES ovarian = system: NCI/ADR-RES ovarian
SR leukemia = system: SR leukemia
HCT-116 colon = system: HCT-116 colon
SN12C renal = system: SN12C renal
MOLT-4 leukemia = system: MOLT-4 leukemia
RXF 393 renal = system: RXF 393 renal
CAKI-1 renal = system: CAKI-1 renal
A498 renal = system: A498 renal
PC-3 prostate = system: PC-3 prostate
IGROV1 ovarian = system: IGROV1 ovarian
SNB-19 CNS = system: SNB-19 CNS
MCF7 breast = system: MCF7 breast
SK-MEL-28 melanoma = system: SK-MEL-28 melanoma
HS 578T breast = system: HS 578T breast
UACC-257 melanoma = system: UACC-257 melanoma
SNB-75 CNS = system: SNB-75 CNS
NCI-H522 lung = system: NCI-H522 lung
MDA-MB-435 = system: MDA-MB-435
MALME-3M melanoma = system: MALME-3M melanoma

Cn1cc(-c2cc3nc(-c4c[nH]c5ccccc45)cc(N)n3n2)c2cc(Cl)ccc21
GI50 (HCC-2998 colon): 1.87 µM
TGI (HCC-2998 colon): 3.5 µM
GI50 (HL-60(TB) leukemia): 1.94 µM
TGI (HL-60(TB) leukemia): 5.01 µM
GI50 (OVCAR-5 ovarian): 1.81 µM
TGI (OVCAR-5 ovarian): 4.22 µM
GI50 (786-0 renal): 1.64 µM
TGI (786-0 renal): 3.12 µM
GI50 (NCI-H460 lung): 2.36 µM
TGI (NCI-H460 lung): 5.56 µM
GI50 (M14 melanoma): 1.77 µM
TGI (M14 melanoma): 3.36 µM
GI50 (NCI-H226 lung): 16.9 µM
TGI (NCI-H226 lung): 44 µM
GI50 (HT29 colon): 1.93 µM
TGI (HT29 colon): 3.99 µM
GI50 (HOP-92 NSCLC): 1.99 µM
TGI (HOP-92 NSCLC): 4.1 µM
GI50 (SK-MEL-2 melanoma): 2.11 µM
TGI (SK-MEL-2 melanoma): 4.63 µM
GI50 (UACC-62 melanoma): 1.8 µM
TGI (UACC-62 melanoma): 3.51 µM
GI50 (SK-OV-3 ovarian): 2.24 µM
TGI (SK-OV-3 ovarian): 5.62 µM
GI50 (U251 CNS): 1.8 µM
TGI (U251 CNS): 3.61 µM
GI50 (SF-268 CNS): 2.16 µM
TGI (SF-268 CNS): 5.44 µM
GI50 (CCRF-CEM leukemia): 4.4 µM
TGI (CCRF-CEM leukemia): > 100 µM
GI50 (EKVX NSCLC): 2.12 µM
TGI (EKVX NSCLC): 6.03 µM
GI50 (HOP-62 NSCLC): 2.12 µM
TGI (HOP-62 NSCLC): 5.31 µM
GI50 (HCT-15 colon): 1.62 µM
TGI (HCT-15 colon): 3.35 µM
GI50 (DU-145 prostate): 3.62 µM
TGI (DU-145 prostate): 13.4 µM
GI50 (BT-549 breast): 12.9 µM
TGI (BT-549 breast): 32.2 µM
GI50 (MDA-MB-468 breast): 1.62 µM
TGI (MDA-MB-468 breast): 3.37 µM
GI50 (OVCAR-4 ovarian): 1.82 µM
TGI (OVCAR-4 ovarian): 3.49 µM
GI50 (ACHN renal): 1.75 µM
TGI (ACHN renal): 3.41 µM
GI50 (KM12 colon): 1.99 µM
TGI (KM12 colon): 4.24 µM
GI50 (SK-MEL-5 melanoma): 1.98 µM
TGI (SK-MEL-5 melanoma): 4.09 µM
GI50 (UO-31 renal): 1.72 µM
TGI (UO-31 renal): 3.25 µM
GI50 (COLO 205 colon): 1.89 µM
TGI (COLO 205 colon): 3.59 µM
GI50 (LOX IMVI melanoma): 1.71 µM
TGI (LOX IMVI melanoma): 3.15 µM
GI50 (OVCAR-3 ovarian): 2.23 µM
TGI (OVCAR-3 ovarian): 4.76 µM
GI50 (T-47D breast): 1.76 µM
TGI (T-47D breast): 3.82 µM
GI50 (SF-539 CNS): 1.73 µM
TGI (SF-539 CNS): 3.19 µM
GI50 (RPMI-8226 leukemia): 2.94 µM
TGI (RPMI-8226 leukemia): 9.18 µM
GI50 (TK-10 renal): 2.03 µM
TGI (TK-10 renal): 5.36 µM
GI50 (OVCAR-8 ovarian): 2.23 µM
TGI (OVCAR-8 ovarian): 5.07 µM
GI50 (MDA-MB-231 breast): 2.31 µM
TGI (MDA-MB-231 breast): 5.24 µM
GI50 (SF-295 CNS): 1.78 µM
TGI (SF-295 CNS): 3.53 µM
GI50 (NCI-H23 lung): 2.26 µM
TGI (NCI-H23 lung): 5.58 µM
GI50 (K-562 leukemia): 2.26 µM
TGI (K-562 leukemia): 6.3 µM
GI50 (NCI/ADR-RES ovarian): 2.46 µM
TGI (NCI/ADR-RES ovarian): 6.8 µM
GI50 (SR leukemia): 2.61 µM
TGI (SR leukemia): 9.11 µM
GI50 (HCT-116 colon): 1.75 µM
TGI (HCT-116 colon): 3.24 µM
GI50 (SN12C renal): 1.9 µM
TGI (SN12C renal): 4.15 µM
GI50 (MOLT-4 leukemia): 2.71 µM
TGI (MOLT-4 leukemia): 11.1 µM
GI50 (RXF 393 renal): 1.87 µM
TGI (RXF 393 renal): 3.81 µM
GI50 (CAKI-1 renal): 1.66 µM
TGI (CAKI-1 renal): 3.2 µM
GI50 (A498 renal): 3.16 µM
TGI (A498 renal): 11.1 µM
GI50 (PC-3 prostate): 2.97 µM
TGI (PC-3 prostate): 9.37 µM
GI50 (IGROV1 ovarian): 2.53 µM
TGI (IGROV1 ovarian): 7.62 µM
GI50 (SNB-19 CNS): 3.29 µM
TGI (SNB-19 CNS): 13.8 µM
GI50 (MCF7 breast): 1.66 µM
TGI (MCF7 breast): 3.31 µM
GI50 (SK-MEL-28 melanoma): 1.7 µM
TGI (SK-MEL-28 melanoma): 3.12 µM
GI50 (HS 578T breast): 2.38 µM
TGI (HS 578T breast): 6.49 µM
GI50 (UACC-257 melanoma): 1.68 µM
TGI (UACC-257 melanoma): 3.25 µM
GI50 (SNB-75 CNS): 1.52 µM
TGI (SNB-75 CNS): 3.06 µM
GI50 (NCI-H522 lung): 1.75 µM
TGI (NCI-H522 lung): 3.75 µM
GI50 (MDA-MB-435): 1.79 µM
TGI (MDA-MB-435): 3.32 µM
GI50 (MALME-3M melanoma): 1.7 µM
TGI (MALME-3M melanoma): 3.26 µM
